Source: PubChem BioAssay (NCI)
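Protocol summary: plate cells (96-well), add compound at 5 concentrations, incubate 48 h, interpolate endpoints linearly. Definition used: TGI = concentration required for complete inhibition of growth.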

Experiments:
Test in all cases: DTP human tumour cell line panel, 48 h
A498 renal = test system: A498 renal
CAKI-1 renal = test system: CAKI-1 renal
CCRF-CEM leukemia = test system: CCRF-CEM leukemia
DU-145 prostate = test system: DU-145 prostate
HS 578T breast = test system: HS 578T breast
KM12 colon = test system: KM12 colon
M14 melanoma = test system: M14 melanoma
NCI-H23 lung = test system: NCI-H23 lung
NCI-H460 lung = test system: NCI-H460 lung
RPMI-8226 leukemia = test system: RPMI-8226 leukemia
SF-268 CNS = test system: SF-268 CNS
SK-MEL-5 melanoma = test system: SK-MEL-5 melanoma
SN12C renal = test system: SN12C renal
SNB-19 CNS = test system: SNB-19 CNS
T-47D breast = test system: T-47D breast
TK-10 renal = test system: TK-10 renal
UO-31 renal = test system: UO-31 renal
HOP-92 NSCLC = test system: HOP-92 NSCLC

Row | SMILES | TGI (A498 renal) | TGI (CAKI-1 renal) | TGI (CCRF-CEM leukemia) | TGI (DU-145 prostate) | TGI (HS 578T breast) | TGI (KM12 colon) | TGI (M14 melanoma) | TGI (NCI-H23 lung) | TGI (NCI-H460 lung) | TGI (RPMI-8226 leukemia) | TGI (SF-268 CNS) | TGI (SK-MEL-5 melanoma) | TGI (SN12C renal) | TGI (SNB-19 CNS) | TGI (T-47D breast) | TGI (TK-10 renal) | TGI (UO-31 renal) | TGI (HOP-92 NSCLC)
1 | Cc1cc(C)c(-n2[nH]c(=O)n(C)c2=O)c(C)c1 | > 100 µM | > 100 µM | > 100 µM | > 100 µM | > 100 µM | > 100 µM | > 100 µM | > 100 µM | > 100 µM | > 100 µM | > 100 µM | > 100 µM | > 100 µM | > 100 µM | > 100 µM | > 100 µM | > 100 µM | 
2 | CCC(C=O)P1(=O)OC(C)(C)CN1C(C)(C)C (stereo not drawn) | > 100 µM | > 100 µM |  | > 100 µM |  | > 100 µM | > 100 µM | > 100 µM | > 100 µM | > 100 µM | > 100 µM | > 100 µM |  | > 100 µM | > 100 µM | > 100 µM | > 100 µM | 
3 | CC(C)(C)OC(=O)N/N=C(/N)Cc1ccc(Cl)cc1 | > 100 µM | > 100 µM | > 100 µM | > 100 µM | > 100 µM | > 100 µM | > 100 µM |  | > 100 µM |  | > 100 µM | > 100 µM | > 100 µM | > 100 µM | > 100 µM | > 100 µM | > 100 µM | 
4 | COc1c(F)c(F)c(/C(O)=C\c2nc3ccccc3[nH]c2=O)c(F)c1F |  | > 10 µM | > 10 µM | > 10 µM |  | > 10 µM | > 10 µM | > 10 µM |  | > 10 µM | > 10 µM | > 10 µM | > 10 µM |  | > 10 µM | > 10 µM |  | > 10 µM
5 | NC(N)=NCC[C@H](NC(=O)OCCCCCn1ccc(=O)[nH]c1=O)C(=O)O |  | > 100 µM | > 100 µM | > 100 µM | > 100 µM | > 100 µM |  | > 100 µM | > 100 µM | > 100 µM | > 100 µM | > 100 µM | > 100 µM | > 100 µM | > 100 µM | > 100 µM | > 100 µM | > 100 µM
6 | Cc1n[nH]c(=O)n1N1C(=O)CCCC1=O | > 100 µM | > 100 µM | > 100 µM | > 100 µM | > 100 µM |  | > 100 µM | > 100 µM |  |  | > 100 µM | > 100 µM | > 100 µM |  | > 100 µM | > 100 µM |  | 
7 | COc1cc2c(c(OC)c1)/C(=C/Sc1ccccc1)C(=O)N(C(C)(C)C)C2 | 78.1 µM | > 100 µM | > 100 µM | > 100 µM |  | 66.1 µM |  | 77.1 µM |  | 94.5 µM | 39 µM | 36.2 µM | 69 µM |  | > 100 µM | > 100 µM |  | 38.8 µM
8 | O=C(NC1=C(Cl)C(=O)c2ccccc2C1=O)c1ccc(F)cc1 |  |  |  | 18.3 µM | 64.7 µM | 12.5 µM | 12.5 µM | 13.7 µM | 10.6 µM | > 100 µM | 38.9 µM |  | 14.5 µM | 17.3 µM | 4.93 µM | 14.6 µM |  | 3.34 µM
9 | CN1c2ccccc2C(=O)NC12CCN(CCCC(=O)c1ccc(F)cc1)CC2 |  | > 100 µM | > 100 µM | > 100 µM | > 100 µM | > 100 µM | 32.5 µM | > 100 µM |  | > 100 µM | 88.9 µM | 79.6 µM | > 100 µM |  | > 100 µM |  | > 100 µM | > 100 µM
10 | O=C(NNCC(O)COc1ccccc1)c1ccccc1 (stereo not drawn) | > 100 µM | > 100 µM | > 100 µM | > 100 µM |  | > 100 µM | > 100 µM | > 100 µM |  | > 100 µM |  | > 100 µM | > 100 µM | > 100 µM | > 100 µM | > 100 µM | > 100 µM | > 100 µM
11 | O=C(c1ccccc1)c1ccc2nc(-c3c(Cl)c(Cl)c(Cl)c(Cl)c3C(=O)N/N=C/c3ccc(Cl)cc3)[nH]c2c1 |  | > 100 µM | 71.3 µM | > 100 µM | > 100 µM | > 100 µM | > 100 µM | > 100 µM |  | 51.3 µM | > 100 µM | 45.7 µM | > 100 µM | > 100 µM | 88 µM | > 100 µM | > 100 µM | > 100 µM
12 | CC(C)(C)OC(=O)NC(Cc1ccccc1)OCc1ccccc1 (stereo not drawn) |  | 37.8 µM |  | 39.6 µM | 51.5 µM | 37.4 µM | 39.7 µM | 46.3 µM | 44.7 µM | 72.6 µM | 36.2 µM | 31 µM | 50.4 µM | 37.7 µM | 39.8 µM | 41.2 µM | 35.6 µM | 
13 | O=S1(=O)OCCOS(=O)(=O)C1(F)Br |  | > 100 µM | > 100 µM | > 100 µM | > 100 µM | > 100 µM | > 100 µM | > 100 µM |  | > 100 µM | > 100 µM | > 100 µM | > 100 µM | > 100 µM | > 100 µM | > 100 µM | > 100 µM | 
